Experimental data taken from US20040009156A1, “Antisense therapy using oligonucleotides that target human kinesin genes for treatment of cancer” (priority 2001, published 2004).

Key:
SW620 cells [1] = assay: LDH cytotoxicity assay, alone and with cisplatinum; format: cell-based, human; details: FIG. 4
Method: LDH cytotoxicity assays were performed to determine the effect of antisense oligonucleotides on SW620 cell death alone and in the presence of the chemotherapeutic drug cisplatinum. […] Also, the same LDH cytotoxicity assays were performed on MRC9 cells transfected with the same oligonucleotides in the presence or absence of cisplatinum.

[2] = tested on: human colon cancer cell line SW620; assay: Soft agar growth (anchorage independent growth) of transfected SW620 cells; format: cell-based; details: SW620 cells transfected with antisense oligonucleotide; versus reverse control; FIG. 1
Text: The antisense oligonucleotides (SEQ IDNO:17), (SEQ IDNO:4), and (SEQ ID NO:1) were each transfected into the human colon cancer cell line SW620. Additionally, the same colon cancer cell line was transfected with the corresponding reverse control sequences (respectively SEQ ID NO:35, SEQ ID NO:22 and SEQ ID NO:19). […] These assay results contained in FIG. 1 indicate that the synthesized kinesin antisense oligonucleotides inhibit tumorigenesis.

SW620 cells [3] = assay: Cell cycle profile by FACS analysis of propidium iodide stained cells; format: cell-based, human; details: SW620 cells transiently transfected; FIG. 2
Method: SW620 cells were transiently transfected with antisense oligonucleotides according to the invention and the effect on cell cycle profile evaluated by FACS analysis of propidium iodide stained cells. It was observed that cell tested antisense oligonucleotides arrested cells in G2/M phase to different degrees. […] Also, the effect of the same antisense oligonucleotides on the cell cycle of normal human filonblasts was tested.

| Sequence | cytotoxicity (LDH) in combination with cisplatinum (SW620 cells [1]; in combination with the chemotherapeutic drug cisplatinum) | capability of the cells to grow in soft agar (anchorage independent growth) [2] | cell death (LDH cytotoxicity), oligonucleotide alone (SW620 cells [1]) | cell cycle arrest in G2/M phase (SW620 cells [3]) |
| --- | --- | --- | --- | --- |
| TGGATAAATTGCCTGGAATCAGCGC (chemistry not given here) [SEQ ID NO:17] | increase in cytotoxicity | significantly inhibited |  |  |
| GTTGATCTGGGCTCGCAGAGGTAAT (chemistry not given here) [SEQ ID NO:4] |  | significantly inhibited | induced death |  |
| CCTCCGCCATCCTATCAGGCTGAA (chemistry not given here) [SEQ ID NO:1] |  | significantly inhibited | did not induce cytotoxicity | next best inhibiting effect |
